Assay results: US10633389B2, “CARM1 inhibitors and uses thereof” (Epizyme, Inc., priority 2013, dated 2020)

Key:
human CARM1 (PRMT4) = human CARM1 (PRMT4) (Homo sapiens (Human), UniProt Q86X55); assay: CARM1 enzyme assay on peptide substrate (3H-SAM Flashplate); conditions: Biochemical potencies, read-out: Biochem IC50
[1] = test system: asymmetric di-methyl PABP1 in RKO cells; assay: RKO methylation assay, In Cell Western (ICW) for asymmetric di-methyl PABP1; format: cell-based; conditions: Homo sapiens, RKO, Cellular potencies, ICW PABP1me2a
How it was run: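 In-cell Western on fixed RKO cells after 48 h compound exposure: anti-asymmetric di-methyl PABP1 signal at 800 nm over DRAQ5 DNA signal at 700 nm. Percent inhibition set between DMSO wells and wells with 20 μM reference compound; IC50 curves fitted in triplicate.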

Sequence of human CARM1 (PRMT4) (Q86X55 other isoform, or with tags, fused parts or gaps isoform Q86X55-1): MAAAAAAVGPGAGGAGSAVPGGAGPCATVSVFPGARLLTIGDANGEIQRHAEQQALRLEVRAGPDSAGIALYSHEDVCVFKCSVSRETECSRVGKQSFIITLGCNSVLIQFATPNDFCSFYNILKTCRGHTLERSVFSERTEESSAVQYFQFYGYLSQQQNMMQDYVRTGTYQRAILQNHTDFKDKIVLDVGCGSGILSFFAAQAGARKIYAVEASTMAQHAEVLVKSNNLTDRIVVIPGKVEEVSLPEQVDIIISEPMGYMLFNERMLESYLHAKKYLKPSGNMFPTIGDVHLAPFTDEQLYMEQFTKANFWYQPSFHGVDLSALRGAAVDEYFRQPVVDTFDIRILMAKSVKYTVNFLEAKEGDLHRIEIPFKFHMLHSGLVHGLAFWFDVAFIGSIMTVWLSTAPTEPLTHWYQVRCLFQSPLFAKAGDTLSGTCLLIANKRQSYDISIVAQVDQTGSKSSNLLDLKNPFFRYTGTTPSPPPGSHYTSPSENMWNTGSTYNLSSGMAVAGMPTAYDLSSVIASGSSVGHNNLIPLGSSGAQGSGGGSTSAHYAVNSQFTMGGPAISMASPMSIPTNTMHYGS

SMILES	IC50 (human CARM1 (PRMT4)) [µM]	IC50 [1] [µM]
CNCC(O)COc1cc(Cl)cc(-c2nc(C(=O)N(C)C)cc(N(C)C3CCOCC3)n2)c1 (stereo not drawn) [Example 557-1a]	0.1 to 1	10 to 20
CNCC(O)COc1cccc(-c2nc(NC3CCOC3)c(C)c(N3CCNC(C(F)(F)F)C3)n2)c1 (stereo not drawn) [Example 419-1a]	0.1 to 1	10 to 20
CNCC(O)COc1cccc(-c2nc(N[C@@H]3CCOC3)c(C3CC3)c(N3CCOCC3)n2)c1 (stereo partly drawn) [Example 413-1a]	0.1 to 1	10 to 20
CCS(=O)(=O)N1CCN(c2nc(-c3cccc(OCC(O)CNC)c3)nc(NC3CCOCC3)c2C)CC1 (stereo not drawn) [Example 668-1a]	0.1 to 1	≥ 20
CNCC(O)COc1cccc(-c2nc(NC3CCOCC3)cc(-c3c(C)nn(C)c3C)n2)c1 (stereo not drawn) [Example 675-1a]	0.1 to 1	≥ 20
CNCC(O)COc1cccc(-c2nc(N[C@H]3CO[C@H]4OCC[C@H]43)c(C)c(N3CCOCC3)n2)c1 (stereo partly drawn) [Example 374-1a]	0.1 to 1	10 to 20
CNCC(O)COc1cccc(-c2nc(N(C)C3CCOCC3)cc(N3CCN(C(C)=O)CC34CC4)n2)c1 (stereo not drawn) [Example 552-1a]	0.1 to 1	10 to 20
CNCC(O)COc1cccc(-c2nc(C3=CCCC3)cc(C(CCOC)CCOC)n2)c1 (stereo not drawn) [Example 651-1a]	0.1 to 1	≥ 20
CNCC(O)COc1cccc(-c2nc(N[C@@H]3CCOC3)c(C)c(-c3ccnc(NC)c3)n2)c1 (stereo partly drawn) [Example 388-1a]	0.1 to 1	10 to 20
CNCC(O)COc1cccc(-c2nc(NCC(F)(F)F)cc(-c3cncnc3)n2)c1 (stereo not drawn) [Example 626-1a]	1 to 3	≥ 20
CNCC(O)COc1cccc(-c2nc(-c3ccnc(C(=O)N(C)C)c3)cc(N(C)C3CCOCC3)n2)c1 (stereo not drawn) [Example 535-1a]	0.1 to 1	5 to 10
CNCC(O)COc1cc(-c2nc(NC3CCOCC3)c(C)c(-c3c(C)noc3C)n2)ccc1F (stereo not drawn) [Example 52-3]	0.1 to 1	≥ 20
CNCC(O)COc1cccc(-c2nc(N[C@@H]3CCOC3)c(C)c(-c3ccnc(N4CCC4)c3)n2)c1 (stereo partly drawn) [Example 407-1a]	0.1 to 1	10 to 20
CNCC(O)COc1cccc(-c2nc(NCCOC)cc(-c3ccc4c(c3)OCCO4)n2)c1 (stereo not drawn) [Example 628-1a]	0.1 to 1	≥ 20
CNCC(O)COc1cccc(-c2nc(N[C@@H]3CCOC3)c(C)c(C(=O)N3CCOCC3)n2)c1 (stereo partly drawn) [Example 403-1a]	3 to 10	10 to 20
CNCC(O)COc1cccc(-c2nc(Nc3c(C)nn(C)c3C)cc(N(C)C3CCOCC3)n2)c1 (stereo not drawn) [Example 555-1a]	0.1 to 1	10 to 20
CNCC(O)COc1cccc(-c2nc(-c3cc4ccccc4o3)cc(N(CCOC)CCOC)n2)c1 (stereo not drawn) [Example 640-1a]	0.1 to 1	≥ 20
CNCC(O)COc1cccc(-c2nc(NC3CCOCC3)c(C(F)F)c(-c3c(C)noc3C)n2)c1 (stereo not drawn) [Example 214-1a]	0.1 to 1	5 to 10
CNCC(O)COc1cccc(-c2nc(C(=O)NC3CCOCC3)c(C)c(-c3c(C)noc3C)n2)c1 (stereo not drawn) [Example 62-1a]	1 to 3	10 to 20
CNCC(O)COc1cccc(-c2nc(-c3ncc[nH]3)cc(N(C)C3CCOCC3)n2)c1 (stereo not drawn) [Example 550-1a]	0.1 to 1	10 to 20
CNCC(O)COc1cccc(-c2nc(N(C)c3cnc(C)nc3)cc(N(C)C3CCOCC3)n2)c1 (stereo not drawn) [Example 588-1a]	0.1 to 1	10 to 20
CNCC(O)COc1cccc(-c2nc(N[C@@H]3CCOC3)c(C)c(-c3cc[nH]n3)n2)c1 (stereo partly drawn) [Example 349-1a]	0.1 to 1	10 to 20
CNC[C@@H](O)COc1ccc(Cl)c(-c2nc(-c3c(C)noc3C)c(C)c(C3(C)CC3)n2)c1 [Example 262-3]	0.1 to 1	≥ 20
CNCC(O)COc1cccc(-c2nc(-c3cccc4ncccc34)cc(N(CCOC)CCOC)n2)c1 (stereo not drawn) [Example 639-1a]	0.1 to 1	≥ 20
CNCC(O)COc1ccc(C)c(-c2nc(NC3CCOCC3)c(C)c(-c3c(C)noc3C)n2)c1 (stereo not drawn) [Example 123-3]	0.1 to 1	10 to 20
CNCC(O)COc1cccc(-c2nc(N[C@@H]3CCOC3)c(C)c(N3CCCC3c3nc(C)no3)n2)c1 (stereo partly drawn) [Example 472-1a]	0.1 to 1	10 to 20

SMILES	IC50 (human CARM1 (PRMT4)) [µM]	IC50 [1] [µM]
CNCC(O)COc1cccc(-c2nc(N[C@H]3C[C@H](O)C3)cc(N(C)C3CCOCC3)n2)c1 (stereo partly drawn) [Example 590-1a]	0.1 to 1	10 to 20
CNCC(O)COc1cc(Cl)cc(-c2nc(N[C@@H]3CCOC3)c(C)c(C(=O)NCC3CCOCC3)n2)c1 (stereo partly drawn) [Example 336-1a]	0.1 to 1	10 to 20
CNCC(O)COc1cccc(-c2nc(-c3ccncc3)cc(N(C)C3CCN(C(C)=O)CC3)n2)c1 (stereo not drawn) [Example 671-1a]	0.1 to 1	≥ 20
CNCC(O)COc1cccc(-c2nc(NC3CCOC3)c(C)c(N3CCC4(CCO4)CC3)n2)c1 (stereo not drawn) [Example 400-1a]	0.1 to 1	5 to 10
CNCC(O)COc1cccc(-c2nc(N3CCC(O)(CCO)CC3)cc(N(C)C3CCOCC3)n2)c1 (stereo not drawn) [Example 591-1a]	0.1 to 1	10 to 20
CNCC(O)COc1cccc(-c2nc(N[C@@H]3CCOC3)c(F)c(N3CCOCC3)n2)c1 (stereo partly drawn) [Example 433-1a]	0.1 to 1	5 to 10
CNCC(O)COc1cccc(-c2nc(N3CCN(C(C)=O)[C@@H](C)C3)c(C)c(N(C)[C@@H]3CCOC3)n2)c1 (stereo partly drawn) [Example 410-1a]	0.1 to 1	5 to 10
CNCC(O)COc1cccc(-c2nc(NC3CCOCC3)c(CO)c(-c3c(C)noc3C)n2)c1 (stereo not drawn) [Example 213-1a]	0.1 to 1	10 to 20
CCS(=O)(=O)N1CCN(c2cc(N(C)C3CCOCC3)nc(-c3cccc(OCC(O)CNC)c3)n2)C[C@@H]1C (stereo partly drawn) [Example 497-1a]	0.1 to 1	< 5
CNCC(O)COc1cccc(-c2nc(Nc3c(C)noc3C)cc(-c3c(C)noc3C)n2)c1 (stereo not drawn) [Example 48-1a]	1 to 3	10 to 20
CNCC(O)COc1cccc(-c2nc(-c3nccn3C)cc(N(C)C3CCOCC3)n2)c1 (stereo not drawn) [Example 583-1a]	0.1 to 1	10 to 20
CNCC(O)COc1cccc(-c2nc(NCCOC)cc(-c3ccnc(OC)c3)n2)c1 (stereo not drawn) [Example 638-1a]	0.1 to 1	≥ 20
CNCC(O)COc1cccc(-c2nc(N[C@@H]3CCOC3)c(C)c(N3CCC[C@H]3COC)n2)c1 (stereo partly drawn) [Example 395-1a]	0.1 to 1	10 to 20
CNCC(O)COc1cccc(-c2nc(NCCOC)cc(-c3cncnc3)n2)c1 (stereo not drawn) [Example 659-1a]	0.1 to 1	≥ 20
CNCC(O)COc1cccc(-c2nc(N[C@@H]3CCOC3)c(C)c(N3CCn4c(nnc4C(F)(F)F)C3)n2)c1 (stereo partly drawn) [Example 365-1a]	0.1 to 1	10 to 20
CNCC(O)COc1cccc(-c2nc(NC3CCOCC3)cc(C3CC3)n2)c1 (stereo not drawn) [Example 646-1a]	0.1 to 1	≥ 20
CNCC(O)COc1cccc(-c2nc(NCCCN3CCCC3=O)cc(-c3cnn(CC(C)C)c3)n2)c1 (stereo not drawn) [Example 635-1a]	1 to 3	≥ 20
CNCC(O)COc1cccc(-c2nc(N[C@@H]3CCOC3)c(C)c(C(=O)N(C)CC3CCOCC3)n2)c1 (stereo partly drawn) [Example 364-1a]	0.1 to 1	10 to 20
CNCC(O)COc1cccc(-c2nc(N[C@@H]3CCOC3)c(C)c(-c3cccnc3F)n2)c1 (stereo partly drawn) [Example 348-1a]	0.1 to 1	10 to 20
CCc1c(N[C@@H]2CCOC2)nc(-c2cccc(OCC(O)CNC)c2)nc1N1CCOCC1 (stereo partly drawn) [Example 404-1a]	0.1 to 1	10 to 20
CNCC(O)COc1cccc(-c2nc(NC3CCOCC3)c(C)c(N3CCN(S(C)(=O)=O)CC3)n2)c1 (stereo not drawn) [Example 660-1a]	1 to 3	≥ 20
CNCC(O)COc1cccc(-c2nc(N3CCOCC3)cc(N(C3CCOCC3)C3CC3)n2)c1 (stereo not drawn) [Example 601-1a]	0.1 to 1	10 to 20
CNCC(O)COc1cccc(-c2nc(-c3c(C)noc3C)c(C)c(-c3nc(C)cn3C)n2)c1 (stereo not drawn) [Example 130-1a]	0.1 to 1	10 to 20
CNCC(O)COc1cccc(-c2nc(-c3c(C)noc3C)c(C)c(N3CCC[C@@H](N(C)C(=O)OC)C3)n2)c1 (stereo partly drawn) [Example 180-1a]	0.1 to 1	10 to 20
CNCC(O)COc1cc(-c2nc(N(C)C3CCOCC3)c(C)c(-n3cccn3)n2)cc(-n2cccn2)c1 (stereo not drawn) [Example 598-1a]	0.1 to 1	10 to 20
